Reference: BindingDB's records for doi:10.1021/jm00119a018 (Southern Research Institute, 1988)

Biological target: Bifunctional purine biosynthesis protein ATIC (Homo sapiens, UniProt P31939)
Experiment: ChEBML_28408
Procedure: Compound was tested for inhibition of AICAR formyltransferase

Chain of Bifunctional purine biosynthesis protein ATIC (P31939 whole entry): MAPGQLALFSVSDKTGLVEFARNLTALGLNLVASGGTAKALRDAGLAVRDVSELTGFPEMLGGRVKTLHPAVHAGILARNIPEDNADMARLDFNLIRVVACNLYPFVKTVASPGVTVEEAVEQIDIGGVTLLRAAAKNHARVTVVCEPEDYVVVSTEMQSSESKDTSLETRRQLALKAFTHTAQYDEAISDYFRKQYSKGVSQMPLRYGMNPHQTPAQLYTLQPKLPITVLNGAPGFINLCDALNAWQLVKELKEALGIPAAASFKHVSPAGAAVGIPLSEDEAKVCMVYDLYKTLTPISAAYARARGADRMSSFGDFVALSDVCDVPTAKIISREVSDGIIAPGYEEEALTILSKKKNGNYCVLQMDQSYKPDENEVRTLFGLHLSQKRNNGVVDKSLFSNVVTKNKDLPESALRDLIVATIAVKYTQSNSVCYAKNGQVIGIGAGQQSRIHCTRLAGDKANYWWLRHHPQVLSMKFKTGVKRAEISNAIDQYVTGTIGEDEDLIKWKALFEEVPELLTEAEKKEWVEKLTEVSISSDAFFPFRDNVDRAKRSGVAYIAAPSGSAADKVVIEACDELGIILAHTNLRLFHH

CC1c2c(nc(N)[nH]c2=O)NCC1CCc1ccc(C(=O)NC(CCC(=O)O)C(=O)O)cc1 (stereo not drawn) [(5RS, 6RS) 2-{4-[2-(2-Amino-5-methyl-4-oxo-3,4,5,6,7,8-hexahydro-pyrido[2,3-d]pyrimidin-6-yl)-ethyl]-benzoylamino}-pentanedioic acid]
IC50: > 20 µM
